Data as given in patent publication US8415469B2, “Compounds and methods for kinase modulation, and indications therefor” (Plexxikon Inc., priority 2005, dated 2013).

What was measured:
Format in all cases: biochemical
B-Raf = molecular target: T1, B-Raf (Homo sapiens, UniProt P15056); experiment: AlphaScreen kinase assay, B-Raf; settings: read-out: IC50, activity toward kinase B-Raf
T1 construct: purchased Upstate Biotechnology

B-Raf V600E = molecular target: T2, B-Raf V600E (Homo sapiens, UniProt P15056, V600E); experiment: AlphaScreen kinase assay, B-Raf V600E; settings: read-out: IC50, activity toward kinase B-Raf V600E
T2 construct: P4254. pFastBacBD-CDC37 BRAF D437-K722-X, V600E; His6 with pFastBac HT leader (TEV site) (N); made in house; host or cells: Sf9 (baculovirus; chaperone CDC37 co-expressed)
T2 sequence (P15056 with tags, fused parts or gaps V600E): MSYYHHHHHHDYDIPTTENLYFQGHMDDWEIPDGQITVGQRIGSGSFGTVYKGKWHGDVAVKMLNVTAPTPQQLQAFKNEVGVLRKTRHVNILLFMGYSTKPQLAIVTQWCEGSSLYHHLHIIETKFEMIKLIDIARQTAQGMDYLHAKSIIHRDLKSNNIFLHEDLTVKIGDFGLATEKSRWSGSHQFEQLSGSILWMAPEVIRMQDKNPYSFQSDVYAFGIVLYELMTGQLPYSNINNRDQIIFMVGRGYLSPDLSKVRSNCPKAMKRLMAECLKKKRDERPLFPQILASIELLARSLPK

c-Raf-1 = molecular target: T3, c-Raf-1 (Homo sapiens, UniProt P04049); experiment: AlphaScreen kinase assay, c-Raf-1; settings: read-out: IC50, activity toward kinase c-Raf-1
T3 construct: purchased Upstate Biotechnology
T3 sequence (P04049 whole entry): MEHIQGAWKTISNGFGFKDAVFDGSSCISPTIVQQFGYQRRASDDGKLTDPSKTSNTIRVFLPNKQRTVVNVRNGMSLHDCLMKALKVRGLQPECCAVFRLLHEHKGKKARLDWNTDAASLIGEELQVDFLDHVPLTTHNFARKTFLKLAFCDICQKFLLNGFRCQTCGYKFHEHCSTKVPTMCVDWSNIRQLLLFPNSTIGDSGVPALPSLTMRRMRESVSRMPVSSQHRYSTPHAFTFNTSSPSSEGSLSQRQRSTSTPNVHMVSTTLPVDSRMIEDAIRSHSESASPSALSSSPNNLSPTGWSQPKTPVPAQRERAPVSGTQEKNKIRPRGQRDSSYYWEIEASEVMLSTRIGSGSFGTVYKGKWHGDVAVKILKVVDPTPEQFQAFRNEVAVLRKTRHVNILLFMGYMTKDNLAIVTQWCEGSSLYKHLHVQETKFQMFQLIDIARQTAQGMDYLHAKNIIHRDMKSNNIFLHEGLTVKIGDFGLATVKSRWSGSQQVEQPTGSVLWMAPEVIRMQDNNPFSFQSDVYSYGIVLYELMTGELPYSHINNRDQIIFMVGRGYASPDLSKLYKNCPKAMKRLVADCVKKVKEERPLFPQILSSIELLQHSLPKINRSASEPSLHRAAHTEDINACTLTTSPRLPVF

Fak = molecular target: T4, Fak (Homo sapiens, UniProt Q05397); experiment: AlphaScreen kinase assay, Fak; settings: read-out: IC50, activity toward kinase Fak
T4 construct: P1358.pFastBacHtb FAK S411-Q686-X; His6 with pFastBacHTb leader (TEV site) (N); made in house; host or cells: Sf9 (baculovirus)
T4 sequence (Q05397 411-686): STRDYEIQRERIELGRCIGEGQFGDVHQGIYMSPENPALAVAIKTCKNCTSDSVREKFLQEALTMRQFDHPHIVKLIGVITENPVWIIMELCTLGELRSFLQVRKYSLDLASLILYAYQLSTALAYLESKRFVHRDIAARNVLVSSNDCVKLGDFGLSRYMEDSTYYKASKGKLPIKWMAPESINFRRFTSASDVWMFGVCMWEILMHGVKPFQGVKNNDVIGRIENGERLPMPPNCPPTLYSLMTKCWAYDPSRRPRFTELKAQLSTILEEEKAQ
Text: AlphaScreen assay was used to screen additional kinases. The assay is similarly dependent on the phosphorylation of a peptide substrate. In this assay, an antibody that recognizes phosphorylated substrate is bound to an acceptor bead. The peptide substrate is attached to biotin, which binds to a donor head that contains streptavidin. Thus phosphorylated substrate is bound by antibody and streptavidin, bringing the donor and acceptor heads into close proximity when kinase is not inhibited. The donor produces singlet oxygen which results in emission from the acceptor when they are in close proximity. Conversely, when kinase is inhibited, the donor and acceptor beads are not associated and the emission from the acceptor is reduced.
AlphaScreen assays were done using compounds dissolved in DMSO to a concentration of 20 mM. The compounds were diluted accordingly to the desired final concentrations in each sample well, using 1:3 serial dilution for a total of 8 concentration points. Plates were prepared such that each kinase reaction is 20 μl in 1× kinase buffer, 5% DMSO and 10 μM ATP. After incubation of the kinase reaction for 1 hour at room temperature, 5 μl of donor beads in stop buffer (50 mM EDTA in 1× kinase buffer) was added, the sample was mixed and incubated for 20 minutes at room temperature before adding 5 μl of acceptor beads in stop buffer. The samples were incubated for 60 minutes at room temperature and the signal per well was read on AlphaQuest reader.

FGFR1 = molecular target: T5, FGFR1 (Homo sapiens, UniProt P11362, C488A/C584S); experiment: AlphaScreen kinase assay, FGFR1; settings: read-out: IC50, activity toward kinase FGFR
T5 construct: P1351.pET N6 BI-PTP FGFR A458-E765-X C488A, C584S; made in house; host or cells: E. coli (PTP1B co-expressed)

Fms = molecular target: T6, Fms (Homo sapiens, UniProt P07333); experiment: AlphaScreen kinase assay, Fms; settings: read-out: IC50, activity toward kinase Fms
T6 construct: purchased Upstate Biotechnology
T6 sequence (P07333 20-972): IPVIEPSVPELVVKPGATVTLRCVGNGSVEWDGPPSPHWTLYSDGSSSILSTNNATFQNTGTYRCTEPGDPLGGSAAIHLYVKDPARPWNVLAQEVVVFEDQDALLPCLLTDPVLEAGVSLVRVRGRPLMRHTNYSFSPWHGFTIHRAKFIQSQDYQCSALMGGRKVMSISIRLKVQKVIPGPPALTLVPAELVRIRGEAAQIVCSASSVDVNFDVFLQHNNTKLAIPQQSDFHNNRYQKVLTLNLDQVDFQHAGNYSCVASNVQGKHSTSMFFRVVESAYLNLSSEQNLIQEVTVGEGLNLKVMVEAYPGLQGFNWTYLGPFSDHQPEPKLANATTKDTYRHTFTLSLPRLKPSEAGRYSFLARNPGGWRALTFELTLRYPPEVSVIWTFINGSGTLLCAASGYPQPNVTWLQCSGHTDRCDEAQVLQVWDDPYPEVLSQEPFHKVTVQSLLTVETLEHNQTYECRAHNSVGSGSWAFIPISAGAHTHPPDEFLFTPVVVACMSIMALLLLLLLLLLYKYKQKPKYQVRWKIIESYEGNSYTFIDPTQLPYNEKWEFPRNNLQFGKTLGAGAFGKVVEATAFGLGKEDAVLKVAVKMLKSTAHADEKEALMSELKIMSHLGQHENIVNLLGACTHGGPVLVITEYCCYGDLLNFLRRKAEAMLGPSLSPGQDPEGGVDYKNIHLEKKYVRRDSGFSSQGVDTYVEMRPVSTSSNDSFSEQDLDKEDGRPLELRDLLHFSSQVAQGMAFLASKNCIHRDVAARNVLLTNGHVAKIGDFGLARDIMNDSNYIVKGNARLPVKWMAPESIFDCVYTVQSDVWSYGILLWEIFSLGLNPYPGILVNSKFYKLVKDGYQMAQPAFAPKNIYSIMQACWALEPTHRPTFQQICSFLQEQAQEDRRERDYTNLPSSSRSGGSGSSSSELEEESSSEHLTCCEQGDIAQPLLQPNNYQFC

Kit = molecular target: T7, Kit (Homo sapiens, UniProt P10721); experiment: AlphaScreen kinase assay, Kit; settings: read-out: IC50, activity toward kinase Kit
T7 construct: P1332.N6 BI PTP KIT M552-K948-X COD; His6 (N); made in house; host or cells: E. coli (PTP1B co-expressed)
T7 sequence (P10721 with tags, fused parts or gaps): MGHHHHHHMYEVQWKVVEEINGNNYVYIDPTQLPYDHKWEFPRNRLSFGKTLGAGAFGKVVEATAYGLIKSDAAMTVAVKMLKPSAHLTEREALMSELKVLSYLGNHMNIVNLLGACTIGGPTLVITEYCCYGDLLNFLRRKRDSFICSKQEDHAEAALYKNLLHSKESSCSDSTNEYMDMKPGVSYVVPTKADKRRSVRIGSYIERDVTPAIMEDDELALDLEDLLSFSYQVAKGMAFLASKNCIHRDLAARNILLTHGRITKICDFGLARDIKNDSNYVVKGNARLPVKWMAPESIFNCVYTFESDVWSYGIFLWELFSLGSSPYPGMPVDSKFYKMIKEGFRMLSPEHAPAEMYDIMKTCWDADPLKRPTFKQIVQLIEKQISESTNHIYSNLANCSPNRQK

Pyk2 = molecular target: T8, Pyk2 (Homo sapiens, UniProt Q14289); experiment: AlphaScreen kinase assay, Pyk2; settings: read-out: IC50, activity toward kinase Pyk2
T8 construct: purchased Upstate Biotechnology

Src = molecular target: T9, Src (Homo sapiens, UniProt P12931); experiment: AlphaScreen kinase assay, Src; settings: read-out: IC50, activity toward kinase Src
T9 construct: P1144. pET-N6 BI-PTP SRC V86-L536-X; made in house
T9 sequence (P12931 with tags, fused parts or gaps): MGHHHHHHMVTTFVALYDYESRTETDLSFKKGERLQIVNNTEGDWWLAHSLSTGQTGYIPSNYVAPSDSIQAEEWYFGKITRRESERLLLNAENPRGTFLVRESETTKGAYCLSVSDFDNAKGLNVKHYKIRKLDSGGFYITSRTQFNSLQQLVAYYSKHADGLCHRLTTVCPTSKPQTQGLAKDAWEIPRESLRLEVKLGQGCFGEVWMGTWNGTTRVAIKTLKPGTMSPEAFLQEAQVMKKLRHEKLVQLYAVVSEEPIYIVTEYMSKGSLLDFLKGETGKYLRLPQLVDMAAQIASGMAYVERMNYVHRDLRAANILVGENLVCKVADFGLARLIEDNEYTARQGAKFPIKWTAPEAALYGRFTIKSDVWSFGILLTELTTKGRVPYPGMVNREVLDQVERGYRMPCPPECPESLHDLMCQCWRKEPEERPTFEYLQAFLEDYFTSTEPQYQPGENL

Flt1 = molecular target: T10, Flt1 (Homo sapiens, UniProt P17948); experiment: AlphaScreen kinase assay, Flt1; settings: read-out: IC50, activity toward kinase Flt1
T10 construct: P1826.pETN6 BI-PTP FLT1 M799-D1165-X WT; His6 (N); made in house; host or cells: E. coli (PTP1B co-expressed)
T10 sequence (P17948 with tags, fused parts or gaps): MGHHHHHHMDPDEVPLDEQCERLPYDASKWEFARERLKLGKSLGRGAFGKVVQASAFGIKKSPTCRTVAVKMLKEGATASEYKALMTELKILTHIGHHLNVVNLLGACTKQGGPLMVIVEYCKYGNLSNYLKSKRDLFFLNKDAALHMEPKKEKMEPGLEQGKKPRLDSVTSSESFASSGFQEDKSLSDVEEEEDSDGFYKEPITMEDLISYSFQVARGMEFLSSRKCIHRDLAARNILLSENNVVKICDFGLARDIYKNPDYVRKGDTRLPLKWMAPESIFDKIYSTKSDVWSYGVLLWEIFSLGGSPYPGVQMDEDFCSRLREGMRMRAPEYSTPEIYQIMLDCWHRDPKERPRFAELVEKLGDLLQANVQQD

Jnk1 = molecular target: T11, Jnk1 (Homo sapiens, UniProt P45983); experiment: AlphaScreen kinase assay, Jnk1; settings: read-out: IC50, activity toward kinase Jnk1
T11 construct: purchased Upstate Biotechnology
T11 sequence (P45983 whole entry): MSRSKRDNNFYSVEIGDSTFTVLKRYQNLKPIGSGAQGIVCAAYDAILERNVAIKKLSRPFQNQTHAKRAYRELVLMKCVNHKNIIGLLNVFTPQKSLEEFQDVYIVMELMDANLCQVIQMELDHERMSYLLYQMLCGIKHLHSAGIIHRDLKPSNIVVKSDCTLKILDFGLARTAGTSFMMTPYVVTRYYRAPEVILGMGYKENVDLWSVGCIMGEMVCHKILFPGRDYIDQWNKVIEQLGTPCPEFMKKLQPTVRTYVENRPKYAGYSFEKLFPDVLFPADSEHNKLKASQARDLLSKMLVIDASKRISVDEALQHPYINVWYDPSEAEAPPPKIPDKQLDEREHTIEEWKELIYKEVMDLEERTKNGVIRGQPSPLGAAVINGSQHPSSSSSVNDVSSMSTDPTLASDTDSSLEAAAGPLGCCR

Jnk2 = molecular target: T12, Jnk2 (Homo sapiens, UniProt P45984); experiment: AlphaScreen kinase assay, Jnk2; settings: read-out: IC50, activity toward kinase Jnk2
T12 construct: purchased Roche Protein Expression Group (Indianapolis, IN)
How it was run: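 AlphaScreen read-out: acceptor-bead emission falls when kinase is inhibited. Biotin-peptide substrate captured on streptavidin donor beads, phospho-specific antibody on acceptor beads. 8 concentrations, 1:3 dilution series, from 20 mM DMSO stocks.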

Ret = molecular target: T13, Ret (Homo sapiens, UniProt P07949); experiment: AlphaScreen kinase assay, Ret; settings: read-out: IC50, activity toward kinase Ret
T13 construct: P1378.pET-SF BI-PTP RET H661-R1012 HIS; made in house
T13 sequence (P07949 with tags, fused parts or gaps): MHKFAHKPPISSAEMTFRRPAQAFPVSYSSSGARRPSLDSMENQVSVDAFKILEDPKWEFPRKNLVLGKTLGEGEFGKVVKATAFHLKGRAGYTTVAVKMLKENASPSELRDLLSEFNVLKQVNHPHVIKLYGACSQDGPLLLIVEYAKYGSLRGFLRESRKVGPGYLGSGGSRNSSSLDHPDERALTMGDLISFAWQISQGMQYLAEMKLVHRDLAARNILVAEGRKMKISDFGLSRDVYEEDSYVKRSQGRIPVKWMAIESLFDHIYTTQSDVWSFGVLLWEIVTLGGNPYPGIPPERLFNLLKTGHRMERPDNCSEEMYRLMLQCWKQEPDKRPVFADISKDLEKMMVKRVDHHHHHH

Yes = molecular target: T14, Yes (Homo sapiens, UniProt P07947); experiment: Z'-Lyte FRET kinase assay (Invitrogen), Yes; settings: read-out: IC50, activity toward kinase Yes
T14 construct: purchased Invitrogen (Carlsbad, Calif.), screening service
T14 sequence (P07947 whole entry): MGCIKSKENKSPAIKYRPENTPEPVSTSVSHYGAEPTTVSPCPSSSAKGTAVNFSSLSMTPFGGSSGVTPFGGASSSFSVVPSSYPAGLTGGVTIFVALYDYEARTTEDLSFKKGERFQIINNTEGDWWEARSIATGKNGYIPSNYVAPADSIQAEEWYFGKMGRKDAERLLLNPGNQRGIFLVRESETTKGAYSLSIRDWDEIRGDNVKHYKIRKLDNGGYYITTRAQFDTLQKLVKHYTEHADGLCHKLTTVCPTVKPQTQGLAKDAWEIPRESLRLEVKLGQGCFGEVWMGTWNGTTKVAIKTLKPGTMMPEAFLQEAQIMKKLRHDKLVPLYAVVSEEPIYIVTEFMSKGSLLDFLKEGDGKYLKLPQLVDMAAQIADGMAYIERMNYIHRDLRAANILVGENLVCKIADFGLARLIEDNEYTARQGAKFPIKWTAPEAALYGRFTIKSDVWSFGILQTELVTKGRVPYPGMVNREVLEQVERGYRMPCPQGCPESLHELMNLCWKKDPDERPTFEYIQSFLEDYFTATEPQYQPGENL
Text: The effect of potential modulators of kinase activity can be measured in a variety of different assays known in the art. For example, direct radiometric, indirect FRET or AlphaScreen assays may be used to assess the level of phosphorylation of a substrate in the presence of test compounds in order to determine the inhibitory affect of the compound on the kinase. Invitrogen (Carlsbad, Calif.) uses a FRET based assay for Btk, EGFR, EphB2, Flt3, lrak4, Kdr, MAP2K1, MAPKAPK2, PDGFRB, PKC theta, Stk6 and Yes. For these assays, compounds of the invention were screened by Invitrogen using Z′-Lyte™ kinase assay.
Briefly, the Invitrogen kinase assay involves use of a specific peptide substrate optimized for each kinase, containing a fluorophore at each end that make up the FRET pair. The peptide sensitivity to proteolytic cleavage depends on phosphorylation of the peptide. Non-phosphorylated peptide is cleaved by a protease while peptide phosphorylated by the kinase is not cleaved. Cleavage of the peptide disrupts the FRET between the donor (coumarin) and acceptor (fluorescein) fluorophores, resulting in an increase in the ratio of donor emission to acceptor emission. The emission ratio of coumarin to fluorescein is used to assess the reaction progress. The extent of phosphorylation is determined from the emission ratio, which is low when the kinase is active (phosphorylated peptide is not cleaved, FRET pair connected) or higher for inhibited kinase (non-phosphorylated peptide is cleaved, FRET pair separated). Thus, the assay involves a kinase reaction in the presence of varying concentrations of a given compound, a development reaction with site specific protease, and detection of the fluorescent emission ratio of coumarin and fluorscein. […] Reaction conditions for each kinase are determined to provide optimal reaction times, incubation temperature, kinase and ATP concentrations. Test samples are made up in 1× kinase buffer (50 mM HEPES pH 7.5, 50 mM MgCl2, 5 mM EGTA, 0.05% BRIJ-35) and compound at desired concentration prepared in DMSO such that the final DMSO is 1%. […] Typically, assay plates are prepared to 10 μl final volume per sample, adding 2.5 μl of compound at 4× the desired concentration in 4% DMSO (serial dilution of compound provides concentration curve), 5 μl of the desired kinase mixed with Z′-LYTE™ peptide substrate (2× in 2× kinase buffer, final peptide at 2 μM), and 2.5 μl of 4×ATP solution. All kinase except for MAP2K1 were at 10 μM ATP in the kinase reaction, while MAP2K1 was at 100 μM. Samples are mixed and the kinase reaction is incubated 1 hour at room temperature, after which 5 μl of development solution is added and mixed. After incubation for another 1 hour at room temperature, 5 μl of stop reagent is added to each sample and mixed. The fluorescence signals are measured to determine the emission ratio.

Kdr = molecular target: T15, Kdr (Homo sapiens, UniProt P35968); experiment: Z'-Lyte FRET kinase assay (Invitrogen), Kdr; settings: read-out: IC50, activity toward kinase Kdr
T15 construct: purchased Invitrogen (assay run by Invitrogen)

Jnk3 = molecular target: T16, Jnk3 (Homo sapiens, UniProt P53779); experiment: AlphaScreen kinase assay, Jnk3; settings: read-out: IC50, activity toward kinase Jnk3
T16 construct: purchased Upstate Biotechnology

Measured: IC50

T1 sequence (P15056 whole entry): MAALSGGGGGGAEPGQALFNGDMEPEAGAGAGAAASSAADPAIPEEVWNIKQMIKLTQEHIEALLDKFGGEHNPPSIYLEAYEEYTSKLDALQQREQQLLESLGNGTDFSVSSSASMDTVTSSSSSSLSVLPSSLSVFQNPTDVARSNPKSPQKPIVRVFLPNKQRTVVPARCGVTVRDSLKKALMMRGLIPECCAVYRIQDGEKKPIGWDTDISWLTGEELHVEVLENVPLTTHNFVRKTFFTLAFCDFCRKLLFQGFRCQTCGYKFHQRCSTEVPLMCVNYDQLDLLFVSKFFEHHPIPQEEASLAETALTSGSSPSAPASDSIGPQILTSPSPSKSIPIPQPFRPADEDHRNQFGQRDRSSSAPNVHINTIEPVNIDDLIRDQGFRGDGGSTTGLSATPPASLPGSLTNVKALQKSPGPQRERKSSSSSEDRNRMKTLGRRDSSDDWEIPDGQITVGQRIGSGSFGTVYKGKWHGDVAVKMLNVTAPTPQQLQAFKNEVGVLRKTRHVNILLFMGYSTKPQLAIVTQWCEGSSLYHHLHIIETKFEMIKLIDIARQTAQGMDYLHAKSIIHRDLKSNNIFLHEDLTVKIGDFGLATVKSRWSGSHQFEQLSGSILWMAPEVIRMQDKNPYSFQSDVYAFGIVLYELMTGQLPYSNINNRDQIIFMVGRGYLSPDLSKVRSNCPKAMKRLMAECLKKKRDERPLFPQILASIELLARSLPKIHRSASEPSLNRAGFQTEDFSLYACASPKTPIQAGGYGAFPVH

CCCS(=O)(=O)Nc1ccc(F)c(Cc2c[nH]c3ncc(Nc4ccccc4)cc23)c1F [Compound P-0818, Propane-1-sulfonic acid [2,4-difluoro-3-(5-phenylamino-1H-pyrrolo[2,3-b]pyridin-3-ylmethyl)-phenyl]-amide]
≤ 10 µM: B-Raf | B-Raf V600E | c-Raf-1 | Fak | FGFR1 | Fms | Kit | Pyk2 | Src

CCCC(=O)Nc1ccc(F)c(C(=O)c2c[nH]c3ncc(-c4cccc(C(N)=O)c4)cc23)c1F [Compound P-1365]
not listed: Src | Jnk2 | Ret | Yes | Kdr | Jnk3
≤ 10 µM: all other assays above

CCCS(=O)(=O)Nc1ccc(F)c(Cc2c[nH]c3ncc(OC)cc23)c1F [Compound P-1316]
≤ 10 µM: B-Raf V600E | c-Raf-1 | Fak | FGFR1 | Fms | Kit | Pyk2 | Src

COC(=O)Nc1ccc(F)c(C(=O)c2c[nH]c3ncc(-c4cccnc4)cc23)c1F [Compound P-0486, [2,4-Difluoro-3-(5-pyridin-3-yl-1H-pyrrolo[2,3-b]pyridine-3-carbonyl)-phenyl]-carbamic acid methyl ester]
not listed: Kit | Src | Yes | Kdr | Jnk3
≤ 10 µM: all other assays above

O=C(Nc1ccc(F)c(Cc2c[nH]c3ncc(-c4cccnc4)cc23)c1F)OCc1ccccc1 [Compound P-0396, [2,4-Difluoro-3-(5-pyridin-3-yl-1H-pyrrolo[2,3-b]pyridin-3-ylmethyl)-phenyl]-carbamic acid benzyl ester]
not listed: Flt1 | Jnk1 | Jnk2 | Yes | Kdr | Jnk3
≤ 10 µM: all other assays above

O=C(c1ccc(NCc2cccc(F)c2)nc1)c1c[nH]c2ncccc12 [Compound P-0327]
≤ 10 µM: Fms | Yes

O=C(c1cccc(O)c1)c1c[nH]c2ncc(-c3ccccc3)cc12 [Compound P-0230]
≤ 10 µM: Kdr | Yes

COc1cccc(C(O)c2c[nH]c3ncc(-c4cccs4)cc23)c1 (stereo not drawn) [Compound P-0161]
≤ 10 µM: Kdr | Yes

Nc1cccc(-c2cnc3[nH]cc(Cc4ccccc4F)c3c2)c1 [Compound P-1349]
≤ 10 µM: B-Raf | B-Raf V600E | Fak | FGFR1 | Jnk1 | Jnk3 | Kit | Pyk2 | Src

CN(C)S(=O)(=O)Nc1ccc(F)c(C(=O)c2c[nH]c3ncc(-c4cccnc4)cc23)c1F [Compound P-0837, Dimethylamine-1-sulfonic acid [3-(5-pyridin-3-yl-1H-pyrrolo[2,3-b]pyridine-3-carbonyl)-2,4-difluoro-phenyl]-amide]
≤ 10 µM: B-Raf | B-Raf V600E | c-Raf-1 | Fak | FGFR1 | Fms | Kit | Pyk2 | Src

CCCS(=O)(=O)Nc1ccc(F)c(Cc2c[nH]c3ncc(Br)cc23)c1F [Compound P-0910, Propane-1-sulfonic acid [3-(5-bromo-1H-pyrrolo[2,3-b]pyridin-3-ylmethyl)-2,4-difluoro-phenyl]-amide]
≤ 10 µM: B-Raf | B-Raf V600E | c-Raf-1 | Fak | FGFR1 | Kit | Pyk2 | Src

CC(=O)Oc1cccc(C(=O)c2c[nH]c3ncc(Br)cc23)c1C [Compound P-0271]
≤ 10 µM: B-Raf | B-Raf V600E | FGFR1 | Yes

CCCC(=O)Nc1ccc(F)c(Cc2c[nH]c3ncc(-c4cccc(C(N)=O)c4)cc23)c1F [Compound P-1281]
≤ 10 µM: B-Raf | B-Raf V600E | Fak | FGFR1 | Fms | Jnk1 | Kit | Pyk2 | Src
